From US20070021434A1, “NON-NUCLEOSIDE ANTI-HEPACIVIRUS AGENTS AND USES THEREOF” (Migenix Inc., priority 2005, published 2007)
Like-named read-outs stand apart in the source and are kept apart here.

What was measured:
[1] = test system: Huh-7 cells, genotype 1b HCV replicon; test: Inhibition of HCV replication in cell culture, genotype 1b replicon; assay type: cell-based, hepatitis C virus; conditions: for EC50: Huh-7, genotype 1b replicon, intracellular HCV RNA 24 h after 3 daily doses; for Selectivity Index (CC50/EC50): genotype 1b replicon, CC50 by neutral red uptake
Protocol: Test compounds were solubilized at 30 mM in 100% tissue culture grade DMSO (Sigma, Inc.). Aliquots of test compounds sufficient for one daily treatment were made in individual tubes and all material was stored at −20° C. On each day of treatment, daily aliquots of the test compounds were suspended in culture medium at room temperature and immediately added to the cell cultures. Compounds were added to dividing cultures once daily for three days at concentrations ranging from about 30 μM to about 0.0003 μM. Media was changed with each addition of compound. The assays were started when cell cultures were at about 30-50% confluence, and the cells reached confluence during the last day of treatment. The assays included untreated control cultures (six total), and triplicate cultures treated with α-interferon and ribavirin as positive antiviral and toxicity controls.
Intracellular HCV RNA levels and cytotoxicity were assessed in triplicate 24 hours after the last compound dose.

[2] = target: HCV RdRp (NS5B) (UniProt P26663); assay type: biochemical, hepatitis C virus
HCV RdRp (NS5B), sequence (P26663 whole entry, looked up): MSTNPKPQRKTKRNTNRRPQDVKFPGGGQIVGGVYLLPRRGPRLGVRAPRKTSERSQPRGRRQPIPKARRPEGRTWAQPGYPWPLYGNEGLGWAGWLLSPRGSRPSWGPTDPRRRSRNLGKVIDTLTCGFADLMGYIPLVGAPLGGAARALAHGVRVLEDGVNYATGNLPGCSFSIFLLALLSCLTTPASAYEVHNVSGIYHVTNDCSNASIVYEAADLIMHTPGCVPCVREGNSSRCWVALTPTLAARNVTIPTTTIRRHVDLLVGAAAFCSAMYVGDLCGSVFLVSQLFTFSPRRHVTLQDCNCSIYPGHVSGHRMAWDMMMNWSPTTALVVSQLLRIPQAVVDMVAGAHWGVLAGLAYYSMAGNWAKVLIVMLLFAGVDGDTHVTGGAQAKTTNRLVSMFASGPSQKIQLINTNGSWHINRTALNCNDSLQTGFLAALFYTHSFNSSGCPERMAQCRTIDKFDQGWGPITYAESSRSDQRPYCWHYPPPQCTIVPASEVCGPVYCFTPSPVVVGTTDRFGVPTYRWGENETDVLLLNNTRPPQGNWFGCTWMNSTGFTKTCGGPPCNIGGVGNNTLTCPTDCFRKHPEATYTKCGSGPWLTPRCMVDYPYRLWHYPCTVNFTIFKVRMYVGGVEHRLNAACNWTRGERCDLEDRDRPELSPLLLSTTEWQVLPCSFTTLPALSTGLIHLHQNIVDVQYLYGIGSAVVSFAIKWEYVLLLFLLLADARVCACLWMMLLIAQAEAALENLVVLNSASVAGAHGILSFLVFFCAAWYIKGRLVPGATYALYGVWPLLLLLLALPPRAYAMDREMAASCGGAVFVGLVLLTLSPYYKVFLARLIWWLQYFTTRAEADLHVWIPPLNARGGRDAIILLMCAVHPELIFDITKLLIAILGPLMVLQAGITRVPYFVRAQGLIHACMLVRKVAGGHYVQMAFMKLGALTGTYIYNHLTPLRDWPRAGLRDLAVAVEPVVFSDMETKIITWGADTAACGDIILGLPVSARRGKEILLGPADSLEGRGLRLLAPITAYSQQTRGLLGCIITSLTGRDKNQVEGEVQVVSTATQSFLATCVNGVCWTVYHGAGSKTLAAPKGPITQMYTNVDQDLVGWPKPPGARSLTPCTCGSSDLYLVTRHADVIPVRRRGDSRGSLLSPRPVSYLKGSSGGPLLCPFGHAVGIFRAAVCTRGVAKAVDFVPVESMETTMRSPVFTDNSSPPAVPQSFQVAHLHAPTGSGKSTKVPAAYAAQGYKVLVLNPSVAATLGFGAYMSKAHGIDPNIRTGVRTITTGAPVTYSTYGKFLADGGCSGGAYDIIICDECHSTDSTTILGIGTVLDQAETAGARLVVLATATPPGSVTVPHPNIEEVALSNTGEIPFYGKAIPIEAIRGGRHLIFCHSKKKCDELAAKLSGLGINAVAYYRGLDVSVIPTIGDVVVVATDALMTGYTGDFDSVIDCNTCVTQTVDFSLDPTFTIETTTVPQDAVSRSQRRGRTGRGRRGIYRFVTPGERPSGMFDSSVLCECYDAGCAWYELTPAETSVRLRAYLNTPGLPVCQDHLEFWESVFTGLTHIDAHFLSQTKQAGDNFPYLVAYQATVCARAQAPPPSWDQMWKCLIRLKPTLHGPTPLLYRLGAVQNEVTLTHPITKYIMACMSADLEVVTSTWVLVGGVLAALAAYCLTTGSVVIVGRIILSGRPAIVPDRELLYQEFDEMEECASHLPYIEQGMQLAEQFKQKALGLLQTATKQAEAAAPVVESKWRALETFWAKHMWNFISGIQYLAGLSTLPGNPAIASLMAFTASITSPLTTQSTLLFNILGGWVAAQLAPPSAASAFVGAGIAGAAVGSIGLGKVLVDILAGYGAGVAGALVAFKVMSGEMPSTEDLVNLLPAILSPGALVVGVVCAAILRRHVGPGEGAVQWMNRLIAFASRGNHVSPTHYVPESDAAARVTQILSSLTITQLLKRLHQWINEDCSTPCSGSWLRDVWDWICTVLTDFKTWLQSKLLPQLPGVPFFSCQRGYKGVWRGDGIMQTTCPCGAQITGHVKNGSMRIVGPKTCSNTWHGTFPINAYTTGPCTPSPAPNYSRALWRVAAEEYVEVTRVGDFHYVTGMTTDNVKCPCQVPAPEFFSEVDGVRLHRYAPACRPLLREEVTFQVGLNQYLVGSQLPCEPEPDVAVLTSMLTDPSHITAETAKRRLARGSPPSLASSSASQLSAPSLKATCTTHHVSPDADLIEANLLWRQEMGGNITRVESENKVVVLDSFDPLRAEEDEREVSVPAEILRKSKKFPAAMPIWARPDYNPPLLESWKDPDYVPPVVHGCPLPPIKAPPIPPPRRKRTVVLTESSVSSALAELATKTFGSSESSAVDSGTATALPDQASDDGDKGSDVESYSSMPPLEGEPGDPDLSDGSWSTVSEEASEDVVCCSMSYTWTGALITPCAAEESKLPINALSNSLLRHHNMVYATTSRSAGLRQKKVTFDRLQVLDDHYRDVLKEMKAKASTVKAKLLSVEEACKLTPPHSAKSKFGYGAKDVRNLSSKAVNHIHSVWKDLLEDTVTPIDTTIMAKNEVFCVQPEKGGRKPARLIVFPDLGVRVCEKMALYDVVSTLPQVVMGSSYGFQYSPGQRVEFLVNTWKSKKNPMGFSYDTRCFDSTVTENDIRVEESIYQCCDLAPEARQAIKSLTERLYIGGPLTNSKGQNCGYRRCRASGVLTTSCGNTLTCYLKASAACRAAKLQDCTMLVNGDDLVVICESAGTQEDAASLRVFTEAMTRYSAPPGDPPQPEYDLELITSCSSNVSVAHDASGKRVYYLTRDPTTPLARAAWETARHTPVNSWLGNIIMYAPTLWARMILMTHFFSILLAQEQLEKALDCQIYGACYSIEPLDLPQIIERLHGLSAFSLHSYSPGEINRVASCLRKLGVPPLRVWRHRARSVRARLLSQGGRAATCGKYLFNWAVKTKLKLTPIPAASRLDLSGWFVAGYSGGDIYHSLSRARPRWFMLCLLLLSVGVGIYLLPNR

[3] = Hepatitis C virus, Huh-7, 24 h, read-out: EC50

## NCCCC[C@H](NC(=O)Nc1ccc(-c2ccccc2)cc1)C(=O)Nc1ccc(C2CCCCC2)cc1 [Compound 119, (S)-6-AMINO-2-(3-BIPHENYL-4-YL-UREIDO)-HEXANOIC ACID (4-CYCLOHEXYL-PHENYL)-AMIDE]
[1]; [3]
  EC50: > 2 µM
[1]
  Selectivity Index (CC50/EC50): <20
[2]
  IC50: < 10 µM

## CC1CCC(NC(=O)[C@H](CCCCN)NC(=O)Nc2ccc(OCc3ccccc3)cc2)CC1 (stereo partly drawn) [Compound 264, (S)-6-AMINO-2-[3-(4-BENZYLOXY-PHENYL)-UREIDO]-HEXANOIC ACID (4-METHYL-CYCLOHEXYL)-AMIDE]
[1]; [3]
  EC50: < 0.5 µM
[1]
  Selectivity Index (CC50/EC50): >100
[2]
  IC50: 10 to 50 µM

## Cc1ccc(NC(=O)[C@H](CCCCN)NC(=O)CNc2ccc(Oc3ccccc3)cc2)cc1 [Compound 368, (S)-6-AMINO-2-[2-(4-PHENOXY-PHENYLAMINO)-ACETYLAMINO]-HEXANOIC ACID P-TOLYLAMIDE]
[1]; [3]
  EC50: 0.5 to 2 µM
[1]
  Selectivity Index (CC50/EC50): <20
[2]
  IC50: < 10 µM

## Cc1ccc(NC(=O)C(Cc2ccc(CN)cc2)NC(=O)Nc2ccc(OCc3ccccc3)cc2)cc1 [Compound 146, (S)-3-(4-AMINOMETHYL-PHENYL)-2-[3-(4-BENZYLOXY-PHENYL)-UREIDO]-N-P-TOLYL-PROPIONAMIDE]
[1]; [3]
  EC50: < 0.5 µM
[1]
  Selectivity Index (CC50/EC50): 20 to 100
[2]
  IC50: < 10 µM

## Cc1ccc(NC(=O)[C@H](CCCCN)NC(=O)Nc2ccc3c(c2)Cc2ccccc2-3)cc1 [Compound 125, (S)-6-AMINO-2-[3-(9H-FLUOREN-2-YL)-UREIDO]-HEXANOIC ACID P-TOLYLAMIDE]
[1]; read-out: EC50
  EC50: > 2 µM
[1]
  Selectivity Index (CC50/EC50): <20
[2]
  IC50: < 10 µM

## Cc1ccc(NC(=O)C[C@H](CCCCN)NC(=O)Nc2ccc(OCc3ccccc3)cc2)cc1 [Compound 246, (S)-7-AMINO-3-[3-(4-BENZYLOXY-PHENYL)-UREIDO]-HEPTANOIC ACID P-TOLYLAMIDE]
[1]; [3]
  EC50: > 2 µM
[1]
  Selectivity Index (CC50/EC50): <20
[2]
  IC50: 10 to 50 µM

## Cc1ccc(NC(=O)[C@H](CCCCN)NC(=O)CNc2cccc(Oc3ccccc3)c2)cc1 [Compound 367, (S)-6-AMINO-2-[2-(3-PHENOXY-PHENYLAMINO)-ACETYLAMINO]-HEXANOIC ACID P-TOLYLAMIDE]
[1]; [3]
  EC50: > 2 µM
[1]
  Selectivity Index (CC50/EC50): <20
[2]
  IC50: < 10 µM

## COC(=O)c1ccc(COc2ccc(NC(=O)NC(CCCCN)C(=O)Nc3ccc(C)cc3)cc2)cc1 [Compound 199, (S)-4-{4-13-(5-AMINO-1-P-TOLYLCARBAMOYL-PENTYL)-UREIDO]-PHENOXYMETHYL}-BENZOIC ACID METHYL ESTER]
[1]; [3]
  EC50: 0.5 to 2 µM
[1]
  Selectivity Index (CC50/EC50): 20 to 100
[2]
  IC50: 10 to 50 µM

## NCCCC[C@H](NC(=O)Nc1ccc(OCc2ccccc2)cc1)C(=O)Nc1ccc(C2CCCCC2)cc1 [Compound 117, (S)-6-AMINO-2-[3-(4-BENZYLOXY-PHENYL)-UREIDO]-HEXANOIC ACID (4-CYCLOHEXYL-PHENYL)-AMIDE]
[1]; [3]
  EC50: > 2 µM
[1]
  Selectivity Index (CC50/EC50): <20
[2]
  IC50: < 10 µM

## NCCCCC[C@H](NC(=O)NCc1ccccc1)C(=O)Nc1ccc(C2CCCCC2)cc1 [Compound 120, (S)-7-AMINO-2-(3-BENZYL-UREIDO)-HEPTANOIC ACID (4-CYCLOHEXYL-PHENYL)-AMIDE]
[1]; [3]
  EC50: > 2 µM
[1]
  Selectivity Index (CC50/EC50): <20
[2]
  IC50: < 10 µM

## Cc1ccc(NC(=O)C(Cc2ccc(CN)cc2)NC(=O)Nc2ccc(-c3ccccc3)cc2)cc1 [Compound 145, (S)-3-(4-AMINOMETHYL-PHENYL)-2-(3-BIPHENYL-4-YL-UREIDO)-N-P-TOLYL-PROPIONAMIDE]
[1]; [3]
  EC50: > 2 µM
[1]
  Selectivity Index (CC50/EC50): <20
[2]
  IC50: < 10 µM

## CC1CCC(NC(=O)[C@H](CNC(=O)CN)NC(=O)Nc2ccc(OCc3ccccc3)cc2)CC1 (stereo partly drawn) [Compound 306, (S)-3-(2-AMINO-ACETYLAMINO)-2-[3-(4-BENZYLOXY-PHENYL)-UREIDO]-N-(4-METHYL-CYCLOHEXYL)-PROPIONAMIDE]
[1]; [3]
  EC50: > 2 µM
[1]
  Selectivity Index (CC50/EC50): <20
[2]
  IC50: 10 to 50 µM

## Cc1cc2cc(NC(=O)[C@H](CCNC(=O)CN)NC(=O)Nc3ccc4c(c3)Cc3ccccc3-4)ccc2[nH]1 [Compound 240, (S)-4-(2-AMINO-ACETYLAMINO)-2-[3-(9H-FLUOREN-2-YL)-UREIDO]-N-(2-METHYL-1H-INDOL-5-YL)-BUTYRAMIDE]
[1]; [3]
  EC50: > 2 µM
[1]
  Selectivity Index (CC50/EC50): <20
[2]
  IC50: 10 to 50 µM

## Cc1cc2cc(NC(=O)[C@H](CCNC(=O)CN)NC(=O)OCC3c4ccccc4-c4ccccc43)ccc2[nH]1 [Compound 237, (S)-[3-(2-AMINO-ACETYLAMINO)-1-(2-METHYL-1H-INDOL-5-YLCARBAMOYL)-PROPYL]-CARBAMIC ACID 9H-FLUOREN-9-YLMETHYL ESTER]
[1]; [3]
  EC50: > 2 µM
[1]
  Selectivity Index (CC50/EC50): <20
[2]
  IC50: < 10 µM

## NCCCC[C@H](NC(=O)OCC1c2ccccc2-c2ccccc21)C(=O)Nc1ccc(CN)cc1 [Compound 228, (S)-[5-AMINO-1-(4-AMINOMETHYL-PHENYLCARBAMOYL)-PENTYL]-CARBAMIC ACID 9H-FLUOREN-9-YLMETHYL ESTER]
[1]; Hepatitis C virus, Huh-7, 24 h
  EC50: 0.5 µM
[1]
  Selectivity Index (CC50/EC50): 20 to 100
[2]
  IC50: < 10 µM

## O=C(CC1CNCCN1C(=O)Nc1ccc(OCc2ccccc2)cc1)Nc1ccc(C2CCCCC2)cc1 (stereo not shown) [Compound 163, 2-[(4-CYCLOHEXYL-PHENYLCARBAMOYL)-METHYL]-PIPERAZINE-1-CARBOXYLIC ACID (4-BENZYLOXY-PHENYL)-AMIDE]
[1]; [3]
  EC50: < 0.5 µM
[1]
  Selectivity Index (CC50/EC50): <20
[2]
  IC50: 10 to 50 µM

## NCCCCN(CC(=O)Nc1ccc(C2CCCCC2)cc1)C(=O)Nc1ccc(C=Cc2ccccc2)cc1 [Compound 324, 2-[1-(4-AMINO-BUTYL)-3-(4-STYRYL-PHENYL)-UREIDO]-N-(4-CYCLOHEXYL-PHENYL)-ACETAMIDE]
[1]; [3]
  EC50: > 2 µM
[1]
  Selectivity Index (CC50/EC50): <20
[2]
  IC50: 10 to 50 µM

## NCCCC[C@@H](NC(=O)Nc1ccc2c(c1)Cc1ccccc1-2)C(=O)Nc1ccc(C2CCCCC2)cc1 [Compound 137, (R)-6-AMINO-2-[3-(9H-FLUOREN-2-YL)-UREIDO]-HEXANOIC ACID (4-CYCLOHEXYL-PHENYL)-AMIDE]
[1]; [3]
  EC50: < 0.5 µM
[1]
  Selectivity Index (CC50/EC50): 20 to 100
[2]
  IC50: < 10 µM

## Cc1ccc(NC(=O)C(CCCCN)NC(=O)Nc2cccc(-c3ccccc3)c2)cc1 [Compound 127, (S)-6-AMINO-2-(3-BIPHENYL-3-YL-UREIDO)-HEXANOIC ACID P-TOLYLAMIDE]
[1]; [3]
  EC50: > 2 µM
[1]
  Selectivity Index (CC50/EC50): <20
[2]
  IC50: 10 to 50 µM

## Cc1ccc(NC(=O)[C@H](CCCCN)NC(=O)CNc2ccccc2Oc2ccccc2)cc1 [Compound 366, (S)-6-AMINO-2-[2-(2-PHENOXY-PHENYLAMINO)-ACETYLAMINO]-HEXANOIC ACID P-TOLYLAMIDE]
[1]; [3]
  EC50: > 2 µM
[1]
  Selectivity Index (CC50/EC50): <20
[2]
  IC50: < 10 µM

## NCCCC[C@H](NC(=O)Nc1ccc(-c2ccccc2)cc1)C(=O)Nc1ccc(CN(C(=O)c2ccco2)C2CCCCC2)cc1 [Compound 26, (S)-FURAN-2-CARBOXYLIC ACID {4-[6-AMINO-2-(3-BIPHENYL-4-YL-UREIDO)-HEXANOYLAMINO]-BENZYL}-CYCLOHEXYL-AMIDE]
[1]; [3]
  EC50: > 2 µM
[1]
  Selectivity Index (CC50/EC50): <20
[2]
  IC50: < 10 µM

## Cc1ccc(NC(=O)C(CCCCN)NC(=O)Nc2ccc(-c3nc4ccccc4o3)cc2)cc1 [Compound 270, (S)-6-AMINO-2-[3-(4-BENZOOXAZOL-2-YL-PHENYL)-UREIDO]-HEXANOIC ACID P-TOLYLAMIDE]
[1]; [3]
  EC50: > 2 µM
[1]
  Selectivity Index (CC50/EC50): <20
[2]
  IC50: 10 to 50 µM

## Cc1ccc(NC(=O)C(CCCC(=O)O)NC(=O)OCC2c3ccccc3-c3ccccc32)cc1 [Compound 402, (S)-5-(9H-FLUOREN-9-YLMETHOXYCARBONYLAMINO)-5-P-TOLYLCARBAMOYL-PENTANOIC ACID]
[2]
  IC50: > 50 µM

## CC(C)(NC(=O)c1ccc(C(=O)O)cc1)C(=O)Nc1ccc(CN(C(=O)c2ccco2)C2CCCCC2)cc1 [Compound 4, N-[1-(4-{[CYCLOHEXYL-(FURAN-2-CARBONYL)-AMINO]-METHYL}-PHENYLCARBAMOYL)-1-METHYL-ETHYL]-TERE[…]]
[2]
  IC50: > 50 µM

## Cc1ccc(NC(=O)C(NC(=O)OCC2c3ccccc3-c3ccccc32)C(C)O)cc1 [Compound 377, (2+/−,3R)-(2-HYDROXY-1-P-TOLYLCARBAMOYL-PROPYL)-CARBAMIC ACID 9H-FLUOREN-9-YLMETHYL ESTER]
[2]
  IC50: > 50 µM

## Cc1ccc(NC(=O)C(CCCCN)NC(=O)OCC2c3ccccc3-c3ccccc32)cn1 (stereo not shown) [Compound 294, [5-AMINO-1-(6-METHYL-PYRIDIN-3-YLCARBAMOYL)-PENTYL]-CARBAMIC ACID 9H-FLUOREN-9-YLMETHYL ESTER]
[2]
  IC50: > 50 µM

## COC(=O)C(Cc1c[nH]c2ccccc12)NC(=O)[C@H](CCCCN)NC(=O)OCC1c2ccccc2-c2ccccc21 (mixture of isomers) [Compound 55, (+/−)-2-[6-AMINO-2-(S)-((9H-FLUOREN-9-YLMETHOXYCARBONYL)AMINO)-HEXANOYL-AMINO]-3-(1H-INDOL-3-YL)-PROPIONIC ACID METHYL ESTER]
[2]
  IC50: > 50 µM

## N[C@@H](Cc1ccccc1)C(=O)Nc1ccc(CN(C(=O)c2ccco2)C2CCCCC2)cc1 [Compound 10, (S)-FURAN-2-CARBOXYLIC ACID [4-(2-AMINO-3-PHENYL-PROPIONYLAMINO) -BENZYL]-CYCLOHEXYL-AMIDE]
[2]
  IC50: > 50 µM

## NCCCC[C@H](NC(=O)c1ccccc1)C(=O)Nc1ccc(CN(C(=O)c2ccco2)C2CCCCC2)cc1 [Compound 27, (S)-FURAN-2-CARBOXYLIC ACID [4-(6-AMINO-2-BENZOYLAMINO-HEXANOYLAMINO)-BENZYL]-CYCLOHEXYL-AMIDE]
[2]
  IC50: > 50 µM
